From patent US20050153872A1, “Methods and compositions for the treatment of infection” (priority 2004, published 2005)
Values after ≈ are worked out from the molar mass of the structure shown. Read-outs that look alike come from different tables or passages of the source.

Key:
Escherichia coli 02-1-65 [1] = assay: MIC against challenge strain (Table 3); assay type: cell-based; details: 02165, read-out: MIC
[2] = tested on: Enterococcus faecalis ATCC 700802; assay: In vivo protection of infected mice; design: species or system Kungming mice; details: Enterococcus faecalis
Experimental: (§1) The following experiments were performed by Pharmacology Lab, National Sichuan antibiotic industril institute, Chengdu, Sichuan.
(§2) The agents described above were diluted with sterilized water to final concentrations of 10 mg/L, 5 mg/Land 2.5 mg/L.
(§3) Staphylococcus aureus ATCC BAA-42(MRSA) and enterococcus faecalis ATCC 700802 were used as control strains.
(§4) 170 mice (Kungming mice: 18˜22 g, 85 males and 85 females) were randomly divided into four groups and injected with a fatal dosage of staphylococci, enterococcus and E. coli intraperitoneally. […] Mice were inspected every 24 hours for 7-14 days. Dead mice were counted as positive results. The results are depicted in Table 3 and FIGS. 4 and 5A-B.

[3] = tested on: Staphylococcus aureus MRSA BAA-42; assay: In vivo protection of infected mice; design: species or system Kungming mice; details: Staphylococcus aureus
Experimental: as §1, §2, §3, §4

[4] = tested on: Staphylococcus aureus MRSA 02-18; assay: In vivo protection of infected mice; design: species or system Kungming mice; details: Staphylococcus aureus, MRSA
Experimental: as §1, §2, §3, §4

[5] = tested on: Enterococcus faecalis ATCC 700802; assay: microbe, parasite or virus in culture; assay type: cell-based; details: ATCC700802; Enterococcus faecalis ATCC 700802; read-out: MIC
[6] = tested on: Vancomycin-resistant Enterococcus ATCC 700802; details: 10 ug/ml; ATCC 700802
Escherichia coli 02-1-65 [7] = assay: In vivo protection of infected mice; design: species or system Kungming mice; details: i.p. infection 3.3 × 10^5 cfu/ml, read-out: ED50
Experimental: as §1
(§5) The agents described above were diluted with sterilized water to final concentrations of 10 mg/L, 5 mg/Land 2.5 mg/L. […]
as §4

[8] = tested on: Staphylococcus aureus ATCC 29213; assay: In vivo protection of infected mice; design: species or system Kungming mice; details: Staphylococcus aureus, i.p. infection 3.6 × 10^5 cfu/ml, read-out: ED50
Experimental: as §1, §5, §4

[9] = tested on: Staphylococcus aureus MRSA BAA-42; assay: microbe, parasite or virus in culture; assay type: cell-based; details: Staphylococcus aureus MRSA BAA-42; read-out: MIC
[10] = tested on: Staphylococcus aureus MRSA strain (80); assay: In vitro antibacterial activity (MIC), clinical isolates; assay type: cell-based; details: Staphylococcus aureus, MRSA
Experimental: (§6) The following experiments were performed by Lab. of Pharmacology, National Sichuan antibiotic industril institute, Chengdu, Sichuan.
(§7) The following agents were used to test the in vitro activity of Ph-SA:
(§8) All the bacterial strains used in the experiments were clinical isolates collected from Sichuan and Beijing in 2002 and identified by West China Hospital, Sichuan University and Chongqing University of Medical Sciences with API system. The following strains were used in the experiments detailed below: Staphylococcus aureus 168 strains (MRSA 80 strains and MSSA 88 strains) Staphylococcus epidermidis 46 strains (MRSE 25 strains and MSSE 21 strains), Enterococcus 20 strains, and Acenetobactor 20 strains. Staphylococcus aureus ATCC25923, 29213 and BAA-42 were used as control strains. Bacterial strains were contacted with one of the above described compounds and MIC50, MIC90 and MICScope were determined.

[11] = tested on: Staphylococcus epidermidis MRSE strain (25); assay: as above; assay type: cell-based; details: Staphylococcus epidermidis, MRSE
Experimental: as §6, §7, §8

Enterococcus (20) = assay: as above; assay type: cell-based; details: 20 Enterococcus clinical isolates
Experimental: as §6, §7, §8

Acenetobactor (20) = assay: as above; assay type: cell-based
Experimental: as §6, §7, §8

[12] = tested on: Staphylococcus aureus MSSA strain (88); assay: as above; assay type: cell-based; details: Staphylococcus aureus, 88 MSSA clinical isolates
Experimental: as §6, §7, §8

[13] = tested on: Staphylococcus epidermidis MSSE strain (21); assay: as above; assay type: cell-based; details: Staphylococcus epidermidis, 21 MSSE clinical isolates
Experimental: as §6, §7, §8

[14] = tested on: Staphylococcus aureus MRSA 02-18; assay: microbe, parasite or virus in culture; assay type: cell-based; details: Staphylococcus aureus MRSA 02-18; read-out: MIC
ATCC 700802 VRE cells [15] = assay: Electron micrographs of bactericidal effects of Ph-EF; assay type: cell-based, Enterococcus; details: Ph-EF 10 ug/ml 0.5 and 2 hr; Ph-SA 10 ug/ml 2 hr; vancomycin 20 ug/ml 2 hr
Experimental: Electron Microraphs of Bactericidal Effects of Ph-EF Against ATCC 700802 VRE Cells (1% Phosphotungstic Acid, 15.000×).
Bactericidal effects of ph-EF were tested and monitored by electron microscopy. FIG. 16 depicts electron micrographs of (a) untreated cells; (b) and (c) cells treated with Ph-EF (10 ug/ml) for 0.5 hr; (d) untreated cells for 2 hr; (e) cells treated by Ph-SA (10 ug/ml) for 2 hr; (f) cells treated with vancomycin (20 ug/ml) for 2 hr; (g) and (h) cells treated with Ph-EF (10 ug/ml) for 2 hrs.

[16] = tested on: Staphylococcus aureus ATCC 29213; assay: MIC against challenge strain (Table 3); assay type: cell-based; details: ATCC29213, read-out: MIC
ATCC 700802 VRE cells [17] = assay: Ph-EF protection of ATCC 700802 infected mice; assay type: in vivo; details: 5 animals
Experimental: To assess in vivo effects of Ph-EF, mice were injected with a fatal dosage of ATCC 700802 VRE cells intraperitoneally. […] Mice were inspected every 24 hours for 7-14 days. Dead mice would be counted as positive results.

`CN[C@H](CC(C)C)C(=O)N[C@H]1C(=O)N[C@@H](CC(N)=O)C(=O)N[C@H]2C(=O)N[C@H]3C(=O)N[C@H](C(=O)N[C@H](C(=O)O)c4cc(O)cc(O)c4-c4cc3ccc4O)[C@H](O)c3ccc(c(Cl)c3)Oc3cc2cc(c3O[C@@H]2O[C@H](CO)[C@@H](O)[C@H](O)[C@H]2O[C@H]2C[C@](C)(N)[C@H](O)[C@H](C)O2)Oc2ccc(cc2Cl)[C@H]1O` [Vancomycin] showed an MIC (Escherichia coli 02-1-65 [1]) of 128 µg/mL (≈ 88.3 µM), an ED50 ([2]; ATCC700802) of 2.64 mg/kg and an ED50 ([2]; ATCC700802, 1 h) of 3.17 mg/kg. For the same compound, the ED50 [3] was 3.53 mg/kg, the ED50 ([3]; 1 h) was 3.64 mg/kg and the ED50 [4] was 2.39 mg/kg. The ED50 ([4]; 1 h) was 2.27 mg/kg, the MIC [5] was 16 µg/mL (≈ 11 µM) and the “inhibition of VRE cell growth” value [6] was “only partially inhibited VRE cell growth”. For the same compound, the ED50 (Escherichia coli 02-1-65 [7]; Escherichia coli, 02165, 2nd Time (value in parentheses), i.v. treatment) was over 30.8 mg/kg, the ED50 (Escherichia coli 02-1-65 [7]; Escherichia coli, 02165, 1 h, 1st Time, i.v. treatment after one hour) was over 30.8 mg/kg and the ED50 ([8]; ATCC29213, 2nd Time (value in parentheses), i.v. treatment) was 2.09 mg/kg. The ED50 ([8]; ATCC29213, 1 h, 1st Time, i.v. treatment after one hour) was 2.32 mg/kg, the MIC [9] was 0.06 µg/mL (≈ 0.0414 µM) and the MIC50 [10] was 0.25 µg/mL (≈ 0.173 µM). For the same compound, the MIC90 [10] was 1 µg/mL (≈ 0.69 µM), the MIC ([10]; read-out: MIC Scope) was 0.004 to 2 µg/mL (≈ 0.00276 to 1.38 µM) and the MIC50 [11] was 0.5 µg/mL (≈ 0.345 µM). For the same compound, the MIC90 [11] was 1 µg/mL (≈ 0.69 µM), the MIC ([11]; read-out: MIC Scope) was 0.25 to 2 µg/mL (≈ 0.173 to 1.38 µM) and the MIC (Enterococcus (20)) was 0.5 to 50 µg/mL (≈ 0.345 to 34.5 µM). The MIC50 (Enterococcus (20); read-out: MIC50) was 1 µg/mL (≈ 0.69 µM), the MIC90 (Enterococcus (20); read-out: MIC90) was 2 µg/mL (≈ 1.38 µM) and the MIC50 (Acenetobactor (20)) was over 128 µg/mL. For the same compound, the MIC90 (Acenetobactor (20)) was over 128 µg/mL, the MIC50 ([12]; read-out: MIC50) was 0.5 µg/mL (≈ 0.345 µM) and the MIC90 ([12]; read-out: MIC90) was 1 µg/mL (≈ 0.69 µM). For the same compound, the MIC ([12]; read-out: MIC Scope) was 0.03 to 1 µg/mL (≈ 0.0207 to 0.69 µM), the MIC [13] was 0.06 to 0.5 µg/mL (≈ 0.0414 to 0.345 µM) and the MIC50 ([13]; read-out: MIC50) was 0.5 µg/mL (≈ 0.345 µM). For the same compound, the MIC90 ([13]; read-out: MIC90) was 0.5 µg/mL (≈ 0.345 µM), the MIC [14] was 0.06 µg/mL (≈ 0.0414 µM) and the “morphological alteration in VRE cells (electron micrographs)” value (ATCC 700802 VRE cells [15]) was “no morphological alteration”. The MIC [16] was 0.5 µg/mL (≈ 0.345 µM), the “Death distribution in hours 24 h” value (ATCC 700802 VRE cells [17]; 5 mg/kg intravenously) was 3 and the “Death distribution in hours 48 h” value (ATCC 700802 VRE cells [17]; 5 mg/kg intravenously) was 2. For the same compound, the “Death distribution in hours 72 h” value (ATCC 700802 VRE cells [17]; 5 mg/kg intravenously) was 1, the “Death distribution in hours 96 h” value (ATCC 700802 VRE cells [17]; 5 mg/kg intravenously) was 0 and the “Death distribution in hours 120 h” value (ATCC 700802 VRE cells [17]; 5 mg/kg intravenously) was 0. For the same compound, the “Death distribution in hours 144 h” value (ATCC 700802 VRE cells [17]; 5 mg/kg intravenously) was 0, the “Death distribution in hours 168 h” value (ATCC 700802 VRE cells [17]; 5 mg/kg intravenously) was 0 and the “Number of Death” value (ATCC 700802 VRE cells [17]; 5 mg/kg intravenously) was 3. The “Death distribution in hours 24 h” value (ATCC 700802 VRE cells [17]; 10 mg/kg intravenously) was 1, the “Death distribution in hours 48 h” value (ATCC 700802 VRE cells [17]; 10 mg/kg intravenously) was 1 and the “Death distribution in hours 72 h” value (ATCC 700802 VRE cells [17]; 10 mg/kg intravenously) was 0. The “Death distribution in hours 96 h” value (ATCC 700802 VRE cells [17]; 10 mg/kg intravenously) was 0, the “Death distribution in hours 120 h” value (ATCC 700802 VRE cells [17]; 10 mg/kg intravenously) was 0 and the “Death distribution in hours 144 h” value (ATCC 700802 VRE cells [17]; 10 mg/kg intravenously) was 0. For the same compound, the “Death distribution in hours 168 h” value (ATCC 700802 VRE cells [17]; 10 mg/kg intravenously) was 0 and the “Number of Death” value (ATCC 700802 VRE cells [17]; 10 mg/kg intravenously) was 1.
